We go through 19 molecules from patent publication US6812225B2, “Therapeutic heterocyclic compounds” (AstraZeneca AB, priority 2001, dated 2004).

Structures are written as SMILES.

One data set has as its target 5-HT1B and 5HT1D receptors.
Assay: not given
Particulars: saturation studies, guinea pig cortex; read-out: Kd value of [3H]GR125743; cited from earlier work.
For `COc1ccc(NC(=O)c2ccc(-c3ccncc3)c(C)c2)cc1N1CCN(C)CC1` [[^3H]-GR125743], the equilibrium dissociation constant (Kd) (in general, the free concentration of one partner at which half of the binding sites on the other are occupied at equilibrium, for simple one-to-one binding) was 0.046 ± 0.004 nM.

The subject of another data set is guinea pigs. Briefly: Learned helplessness test. Type of data set: in vivo, guinea pig. The settings on record: antidepressant/antianxiety activity. From the text:
The utility of the compounds for example to treat depression may be shown via a learned helplessness test in guinea pigs, which is used extensively as correlative to antidepressant activity in humans. The learned helplessness test may be carried out as follows: Seventy male Hartley guinea pigs, each weighing about 350-425 gm are fed ad lib, and are housed under a 12-hour light/dark cycle. The procedure consists of two phases: The induction phase and the avoidance training phase. In the induction phase, subjects are placed into standard shuttle cages (20 L×16 W×21 centimeters H) which are fitted with a grid floor. Electrical stimulation (1.25 mA, 10 sec duration) is delivered to the floor of the cage every 90-sec during 1 hour daily sessions. Subjects have no opportunity to escape or to avoid shocks. Induction is conducted for 2 consecutive days.
In avoidance training, testing is also conducted in the shuttle cages, except that the subjects are not returned to the same chamber in which induction had occurred. Additionally, all cages are fitted with a partition with an arch in the center of the cage, through which animals can pass between the left and right halves of the cage. The procedure employed is a standard shuttle avoidance procedure in which a compound, conditioned stimulus (a 10-sec presentation of a tone and turning on of a lamp on the side of the cage that the guinea pig was occupying) serves to indicate presentation of electrical current to the floor of the cage. Shock is presented for a 5 sec period, 5 sec after initiation of the conditioned stimulus. Entry into the opposite side of the shuttle cage via the arched partition prior to shock onset results in the end of the trial (avoidance response). If shock is delivered, entry into the opposite side of the cage results in termination of the shock and CS (escape). Reversal of learned helplessness in the induction subjects correlates to antidepressant activity of the test compound.
Avoidance training, 45-min in duration, is conducted on 2 consecutive days, beginning 48 hr after the final induction session. Seventy subjects are assigned to 1 of 6 groups of 11-12 animals. The groups are as follows:
Groups 2-6 are given induction and avoidance training sessions. Injections are administered immediately following induction sessions and 1 hour prior to avoidance training sessions. A second injection is administered 7-8 hours following the first injection, for a total of 9 injections administered over 5 days. No injections are administered following the final avoidance training session.
Compounds of the present invention may be administered in a volume of 1 ml/kg bwt. Imipramine is dissolved in DI water. The compounds are dissolved in DI water, to which was added a few drops of lactic acid (pH 5.5). […]
For `COc1cc(N2CCN(C)CC2)c2oc(C(=O)Nc3ccc(N4CCOCC4)cc3)cc(=O)c2c1` [Example 31, 6-Methoxy-8-(4-methyl-piperazin-1-yl)-4-oxo-4H-chromene-2-carboxylic acid (4-morpholin-4-yl-phenyl)-amide], the “activity in the learned helplessness assay” value is reported as “demonstrate activity”.
Same read-out and setting: the value for `CCC(=O)N1CCN(c2ccc(NC(=O)c3cc(=O)c4cc(OC)cc(N5CCN(C)CC5)c4o3)cc2)CC1` [Example 44, 6-Methoxy-8-(4-methyl-piperazin-1-yl)-4-oxo-4H-chromene-2-carboxylic acid [4-(4-propionyl-piperazin-1-yl)-phenyl]-amide] was “demonstrate activity”.
On the same count and under the same terms, next, `CCS(=O)(=O)N1CCN(c2ccc(NC(=O)c3cc(=O)c4cc(F)cc(N5CCN(C)CC5)c4o3)cc2)CC1` [Example 71]: “demonstrate activity”; `CCC(=O)N1CCN(c2ccc(NC(=O)c3cc(=O)c4cc(F)cc(N5CCN(C)CC5)c4o3)cc2)CC1` [Example 72, 6-flouro-8-(4-methyl-piperazin-1-yl)-4-oxo-4H-chromene-2-carboxylic acid [4-(4-propionyl-piperazin-1-yl)-phenyl]-amide]: “demonstrate activity”.

Tested on in the next data set: not given
Assay: not given
Settings: not given
In the case of `COc1cc(N2CCN(C)CC2)c2oc(C(=O)Nc3ccc(N4CCOCC4)cc3)cc(=O)c2c1` [Example 31, 6-Methoxy-8-(4-methyl-piperazin-1-yl)-4-oxo-4H-chromene-2-carboxylic acid (4-morpholin-4-yl-phenyl)-amide], the melting point (in general, the temperature, or range, at which the solid turns liquid) was in the range of 234 to 236 °C.
Still for that read-out and setting: next, `CN1CCN(c2cccc3c2OC(C(=O)Nc2ccc(N4CCOCC4)cc2)CC3)CC1` (single isomer, unassigned; (+)) [Example 76, (+)-8-(41-Methyl-piperazin-1-yl)-chroman-2-carboxylic acid (4-morpholin-4-yl-phenyl)-amide]: 206 to 207 °C.
On the same count and under the same terms, the value for `CN1CCN(c2cc(F)cc3c(=O)cc(C(=O)Nc4ccc(N5CCN(C(=O)CCO)CC5)cc4)oc23)CC1` [Example 73, 6-Fluoro-8-(4-methyl-piperazin-1-yl)-4-oxo-4H-chromene-2-carboxylic acid {4-[4-(3-hydroxy-propanoyl)-piperazin-1-yl]-phenyl}-amide] was 195 to 199 °C.
The same measure, in the same setting: the value for `CN1CCN(c2cccc3c(=O)cc(C(=O)Nc4ccc(N5CCOCC5)cc4O)oc23)CC1` [Example 22, 8-(4-Methyl-piperazin-1-yl)-4-oxo-4H-chromene-2-carboxylic acid (2-hydroxy-4-morpholin-4-yl-phenyl)-amide] was 248.4 to 249.6 °C.
For the molecule `CN1CCN(c2cccc3c2OC(C(=O)Nc2ccc(N4CCOCC4)cc2)CC3=O)CC1` (single isomer, unassigned) [Example 80, 8-(4-Methyl-piperazin-1-yl)-4-oxo-chroman-2-carboxylic acid (4-morpholin-4-yl-phenyl)-amide], the melting point is 215 °C (dec.).
Same read-out and setting: next, `CN1CCN(c2cccc3c2OC(C(=O)Nc2ccc(N4CCOCC4)cc2)CC3=O)CC1` (racemic) [Example 78, racemic-8-(4-methyl-piperazin-1-yl)-4-oxo-chroman-2-carboxylic acid (4-morpholin-4-yl-phenyl)-amide]: 215 to 216 °C; `CN1CCN(c2cccc3c(=O)cc(C(=O)N(C)c4ccc(N5CCOCC5)cc4)oc23)CC1` [Example 25, 8-(4-Methylpiperazin-1-yl)-4-oxo-4H-chromene-2-carboxylic acid methyl-(4-morpholin-4-yl-phenyl)amide]: 245 to 246.8 °C.
The same measure, in the same setting: next, `CCNC(=O)N1CCN(c2ccc(NC(=O)c3cc(=O)c4cc(F)cc(N5CCN(C)CC5)c4o3)cc2)CC1` [Example 81, 4-[4-({1-[6-Fluoro-8-(4-methyl-piperazin-1-yl)-4-oxo-4H-chromen-2-yl]-methanoyl}-amino)-phenyl]-piperazine-1-carboxylic acid ethylamide]: 236 to 238 °C.
`CN1CCN(c2cccc3c(=O)cc(-c4nc5ccc(N6CCOCC6)cc5o4)oc23)CC1` [Example 21, 8-(4-Methyl-piperazin-1-yl)-2-(6-morpholin-4-yl-benzooxazol-2-yl)-chromen-4-one] displayed a melting point of 158.1 to 158.8 °C.
As for `CCS(=O)(=O)N1CCN(c2ccc(NC(=O)c3cc(=O)c4cc(F)cc(N5CCN(C)CC5)c4o3)cc2)CC1` [Example 71], the melting point lay within 233 to 234 °C.
The same measure, in the same setting: next, `CN1CCN(c2cccc3c2OC(C(=O)Nc2ccc(N4CCOCC4)cc2)CC3)CC1` (single isomer, unassigned; (-)) [Example 77, (−)-8-(4-Methyl-piperazin-1-yl)-chroman-2-carboxylic acid (4-morpholin-4-yl-phenyl)-amide]: 205.5 to 207 °C.
The same measure, in the same setting: the value for `CCS(=O)(=O)N1CCN(c2ccc(NC(=O)c3cc(=O)c4cc(OC)cc(N5CCN(C)CC5)c4o3)cc2)CC1` [Example 45, 6-Methoxy-8-(4-methyl-piperazin-1-yl)-4-oxo-4H-chromene-2-carboxylic acid [4-(4-ethanesulfonyl-piperazin-1-yl)-phenyl]-amide] was 232 to 234 °C; that for `CN1CCN(c2cccc3c2OC(C(=O)Nc2ccc(N4CCOCC4)cc2)CC3)CC1` (racemic) [Example 75, racemic-8-(4-Methyl-piperazin-1-yl)-chroman-2-carboxylic acid (4-morpholin-4-yl-phenyl)-amide] was 215 to 216 °C.
For the molecule `CN1CCN(c2cccc3c2OC(C(=O)Nc2ccc(N4CCOCC4)cc2)CC3=O)CC1` (single isomer, unassigned) [Example 79, 8-(4-Methyl-piperazin-1-yl)-4-oxo-chroman-2-carboxylic acid (4-morpholin-4-yl-phenyl)-amide], the melting point is 216 °C (dec.).
Same read-out and setting: next, `CCC(=O)N1CCN(c2ccc(NC(=O)c3cc(=O)c4cc(F)cc(N5CCN(C)CC5)c4o3)cc2)CC1` [Example 72, 6-flouro-8-(4-methyl-piperazin-1-yl)-4-oxo-4H-chromene-2-carboxylic acid [4-(4-propionyl-piperazin-1-yl)-phenyl]-amide]: 244 to 245 °C; `CN1CCN(c2cccc3c(=O)cc(C(=O)Nc4ccc(N5CCOCC5)cc4)oc23)CC1` [Example 1, 8-(4-methyl-1-piperazinyl)-N-[4-(4-morpholinyl)phenyl]-4-oxo-4H-chromene-2-carboxamide]: 217 to 218 °C (dec.); `COc1cc(N2CCN(C)CC2)c2oc(C(=O)Nc3ccc(N4CCN(C(=O)CCO)CC4)cc3)cc(=O)c2c1` [Example 68, 6-Methoxy-8-(4-methyl-piperazin-1-yl)-4-oxo-4H-chromene-2-carboxylic acid {4-[4-(3-hydroxy-propanoyl)-piperazin-1-yl]-phenyl}-amide]: 195 to 197 °C.
